One substance from patent publication US20260266834A1, “Compositions And Methods For Detecting Proteins In Protein Corona” (Board of Trustees of Michigan State University, priority 2023, published 2026) can be followed below.

The target in the test is T1, albumin (Homo sapiens, UniProt P02768).
T1 construct: commercial pooled healthy human plasma diluted to 55% by PBS; from tissue; host or cells: commercial pooled healthy human plasma
The test can be described thus: Abundance of albumin in protein corona proteome by LC-MS/MS. The conditions noted are these: PtdChos 1000 μg/ml; plasma alone over 81%. The method, then: For protein corona formation in the presence of small molecules, commercial pooled healthy human plasma diluted to 55% by PBS was first incubated with the individual small molecules or a combination of small molecules at varying concentrations (i.e., 10, 100, and 1,000 μg/ml) for 1 hour at 37° C., allowing the small molecules to interact with the biological matrix. The small molecule combinations included each of the four small molecules (glucose, triacylglycerols, diacylglycerols, and PtdChos for combination 1; PE, PtdIns, IMP, and vitamin B complex for combination 2) at the given concentration. […]
Initial processing: NPs coated with protein corona were first washed with PBS and then resuspended in 30 μl of PBS, enriched with 15 mM phosphate (pH 7.4). The bound total protein content was estimated to be around 1 μg per sample, determined via a Micro BCA™ assay (Thermo Scientific™). […]
LC-MS/MS Analysis: Dried samples were reconstituted with 1 μg of peptides in 25 μl of liquid chromatography (LC) loading buffer (3% acetonitrile (ACN), 0.1% trifluoroacetic acid (TFA)) and analyzed using LC-MS/MS. A 60-minute gradient was applied in the label-free quantification (LFQ) mode, with 5 μl aliquots injected in triplicate. Control samples (55% human plasma) were prepared with 8 μg of peptides in 200 μl of loading buffer and analyzed similarly. […]

T1 sequence (P02768 25-609): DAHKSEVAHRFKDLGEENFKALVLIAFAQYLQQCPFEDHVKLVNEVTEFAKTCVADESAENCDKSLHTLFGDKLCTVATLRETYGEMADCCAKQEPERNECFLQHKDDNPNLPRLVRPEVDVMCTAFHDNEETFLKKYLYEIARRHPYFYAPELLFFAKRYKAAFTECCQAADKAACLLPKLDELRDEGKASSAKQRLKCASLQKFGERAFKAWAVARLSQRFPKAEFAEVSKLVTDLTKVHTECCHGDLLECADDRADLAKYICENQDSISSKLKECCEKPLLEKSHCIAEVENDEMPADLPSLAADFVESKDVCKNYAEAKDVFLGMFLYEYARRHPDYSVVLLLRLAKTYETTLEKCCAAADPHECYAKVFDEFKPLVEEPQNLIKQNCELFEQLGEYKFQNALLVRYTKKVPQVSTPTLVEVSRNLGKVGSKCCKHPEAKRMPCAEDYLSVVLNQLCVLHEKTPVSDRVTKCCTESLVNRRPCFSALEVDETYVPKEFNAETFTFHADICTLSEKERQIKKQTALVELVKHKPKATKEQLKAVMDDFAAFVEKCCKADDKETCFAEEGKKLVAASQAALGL

On to phosphatidylcholine [PtdChos], for which the “albumin representation (share of proteins)” value is “around 17%”.
